Reference: US10973912B2, “Treatment for myopathy” (Children's Medical Center Corporation, priority 2015, dated 2021)

Key:
[1] = tested on: ryr1b homozygous mutant zebrafish; type: in vivo, zebrafish (Danio rerio)
Description: In two independent experiments, two pools of 20 larvae from heterozygous ryr1b matings were treated with DMSO or with one of three different concentrations of NIF (1.0-100.0 μg/mL) at 1 dpf and evaluated in terms of touch-evoked escape behaviors at 5 dpf (n=40). Following phenotypic scoring, all living embryos were genotyped using three-primer genomic PCR. Swimming scores for larvae genotype-confirmed as ryr1b homozygous mutants are shown as a percentage of the total number of living larvae in each dose category: 1=poor swimming; 2 or 3=moderate or wild-type swimming. NIF improved mobility of ryr1b mutants at a dose of 10 μg/mL. […] Phospho-Stat3 band intensities were normalized to β-Actin control bands and quantified in Image J (NIH).
FIGS. 12A-12C show a ketoprofen dose-response and proposed mechanistic link. […] FIG. 12B is a dose-response graph for ketoprofen (KETO). Two pools of 20 larvae from heterozygous ryr1b matings were treated with DMSO or four different concentrations of KETO (1.0-100.0 μg/mL) at 1 dpf and evaluated in terms of touch-evoked escape behaviors at 5 dpf (n=40). Following phenotypic scoring, all living embryos were genotyped using three-primer genomic PCR. Swimming scores for larvae genotype-confirmed as ryr1b homozygous mutants are shown as a percentage of the total number of living larvae in each dose category: 1=poor swimming, 2 or 3=moderate or wild-type swimming. […] Phosphorylated STATs form dimers, translocate to nuclei, and from there are associated with various transcriptional activities. Dubowitz, V. and Sewry, C. (2006) Muscle Biopsy: A Practical Approach. Elsevier-Health Sciences Division.
The relatively relaxed zebrafish was initially identified due to a spontaneous autosomal recessive mutation within the ryr1b gene^30. Specifically, ryr1b mutants carry a 4046 base pair (bp) DNA insertion in the intron between exons 48 and 49 that includes an additional 32 bp sequence found in mutant cDNA (FIG. 3)^30. Genotypes of individual embryos were examined using three-primer genomic PCR, with an expected wild-type band of 1,668 bp and a mutant band of 653 bp. Primer sequences were as follows: ryr1b #1 (forward): 5′-[…]-3′ (SEQ ID NO: 4); ryr1b #2 (reverse): 5′-[…]-3′ (SEQ ID NO: 5); and ryr1b #3 (reverse): 5′-[…]-3′ (SEQ ID NO: 6).
The primary and secondary screens only tested chemical pools and individual compounds at a single concentration (2.0 μg/mL). Although beneficial in a high-throughput context, this approach can result in false positives and false negatives. […] For analysis, pools of 20 larvae obtained from heterozygous ryr1b matings were treated in duplicate with DMSO or with one of three different concentrations of NIF (1.0-100.0 μg/mL) at 1 dpf and scored for touch-evoked escape behaviors at 5 dpf. All scored larvae were then genotyped using three-primer genomic PCR. […] Next, hit expansion was used to verify JAK-STAT as a potential molecular pathway involved in ryr1b mutant pathology. […] A higher effective dose for 5,15-DPP was consistent with the IC50 measurements reported for each compound^40,41.

ryr1b mutants = test: Body angle measurement after 20 days of treatment; type: in vivo, zebrafish (Danio rerio)
Description: In FIG. 10A, body angles of ryr1b mutants after 20 days of NIF treatment (10.0 μg/mL) are corrected and statistically indistinguishable from wild-type controls. […] Angles were measured by first drawing/extending straight lines between the eyes of the larva as well as along the midline of the trunk (shown by dotted red lines). The angle of intersection was determined using Adobe Photoshop CS3 software (WT-DMSO: 179.1±0.9°, n=6; WT-NIF: 176.8±1.1°, n=6; ryr1b-DMSO: 142.6±6.2°, n=11; ryr1b-NIF: 174.4±2.0°, n=4). Significance was determined by a one-way ANOVA (F=13.60, P<0.0001), followed by pairwise Tukey's HSD post hoc tests. […] Three independent trials were performed with larvae from three different clutches, examining a total of 14-20 wild-type and ryr1b larvae from both DMSO- and NIF-treated groups. Genotypes of individual embryos were confirmed by genomic PCR following the study. Significance was determined by a one-way ANOVA (F=10.03, P=0.0009), followed by pairwise Tukey's HSD post hoc tests. […] One representative 20-minute time interval within the recording period is shown.
This bending is likely a consequence of skeletal muscle weakness, and may be analogous to neck and trunk flexor weakness observed in human patients with MmD (FIG. 10A). To determine if NIF could correct this abnormality, larvae were treated with the compound from 1 to 20 dpf. After 20 days, body angles were measured as the angle of intersection between two lines, one drawn between the eyes of each larva and one drawn along the trunk midline. […] These improvements in morphology reflect long-term strengthening of ryr1b skeletal muscles as a result of exposure to NIF.

SMILES: O=C(N/N=C/c1ccc([N+](=O)[O-])o1)c1ccc(O)cc1 [Nifuroxazide]
- dose that improved mobility of ryr1b mutants / optimal activity ([1]; treated at 1 dpf, touch-evoked escape behaviors at 5 dpf, tested 1.0-100.0 μg/mL): 10 µg/mL
- touch-evoked escape behaviors / mobility of ryr1b mutants ([1]; treated from 1 dpf, scored and genotyped at 5 dpf): ryr1b mutants were among larvae that exhibited wild-type touch-evoked escape behaviors
- body angle, wild-type larvae (ryr1b mutants; 20 days of treatment, 10.0 μg/mL, WT, n=6): 176.8±1.1 °
- body angle, ryr1b mutants (ryr1b mutants; 20 days of treatment, 10.0 μg/mL, ryr1b, n=4, ryr1b-DMSO 142.6±6.2): 174.4±2.0 °
- body angles of treated ryr1b mutants (ryr1b mutants; treated from 1 to 20 dpf): significantly increased and statistically indistinguishable from unaffected controls
